What all share (assay): relative viability (nuclei count vs DMSO), 5 days (fraction); higher = more cells survive
Compound in the assay “IDH-C35 + Foretinib”: Cc1ccccc1C(C(=O)NC1CCCCC1)N(C(=O)Cn1ccnc1C)c1cccc(F)c1 [IDH-C35] + COc1cc2c(Oc3ccc(NC(=O)C4(C(=O)Nc5ccc(F)cc5)CC4)cc3F)ccnc2cc1OCCCN1CCOCC1 [Foretinib] (partner 0.25 µM)
In a few lines: (§1)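 The day after seeding in 1536-well plates, lung cancer cell lines were treated by pin tool with a single drug, or with a fixed anchor-drug dose together with five library-drug doses (not always all listed) in √10 steps. After 5 days, a combined fix-and-stain solution (final 0.05% Triton X-100, 1% formaldehyde, 1 ug/ml Hoechst) was added. Nuclei counted on 4× images gave relative viability as treated counts over vehicle counts, reported as the median of duplicate plates.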

Compound in the assay “IDH-C35 + Linsitinib”: Cc1ccccc1C(C(=O)NC1CCCCC1)N(C(=O)Cn1ccnc1C)c1cccc(F)c1 [IDH-C35] + C[C@]1(O)C[C@@H](c2nc(-c3ccc4ccc(-c5ccccc5)nc4c3)c3c(N)nccn32)C1 [Linsitinib] (partner 1 µM)
In a few lines:
as §1

Compound in assay [1]: CC1=C(C(=NN1)C)CC2=C(C3=C(S2)N(C(=O)N(C3=O)C)CC(C)C)C(=O)N4C[C@@H](CO4)O + Cc1cc(Nc2cc(N3CCN(C)CC3)nc(Sc3ccc(NC(=O)C4CC4)cc3)n2)n[nH]1 [Tozasertib] (partner 0.1 µM)
In a few lines: as §1

Compound in the assay “IDH-C35 + Bortezomib”: Cc1ccccc1C(C(=O)NC1CCCCC1)N(C(=O)Cn1ccnc1C)c1cccc(F)c1 [IDH-C35] + CC(C)C[C@H](NC(=O)[C@H](Cc1ccccc1)NC(=O)c1cnccn1)B(O)O [Bortezomib] (partner 0.002 µM)
In a few lines:
as §1

Regarding 201T, the relative viability with IDH-C35 + Foretinib (first compound 0.08 µM) worked out at 1.12; in the assay with IDH-C35 + Foretinib (first compound 0.253 µM) it was 1.06; with IDH-C35 + Foretinib (first compound 0.8 µM), 1.08; in the assay with IDH-C35 + Foretinib (first compound 2.53 µM) it was 1.01; with IDH-C35 + Foretinib (first compound 8 µM), 1.05; with IDH-C35 + Linsitinib (first compound 0.08 µM), 1.03. Also, the relative viability in the assay with IDH-C35 + Linsitinib (first compound 0.253 µM) worked out at 1.06; with IDH-C35 + Linsitinib (first compound 0.8 µM), 1.01; in the assay with IDH-C35 + Linsitinib (first compound 2.53 µM) it was 0.992; with IDH-C35 + Linsitinib (first compound 8 µM), 0.955; in assay [1] (first compound 0.0025 µM), 1.05; in assay [1] (first compound 0.007906 µM), 0.92. Also, the relative viability in assay [1] (first compound 0.025 µM) stood at 0.915; in assay [1] (first compound 0.07906 µM), 0.904; in assay [1] (first compound 0.25 µM), 1.03; in the assay with IDH-C35 + Bortezomib (first compound 0.08 µM), 1.09; in the assay with IDH-C35 + Bortezomib (first compound 0.253 µM) it was 1.1; with IDH-C35 + Bortezomib (first compound 0.8 µM), 1.08. Also, the relative viability with IDH-C35 + Bortezomib (first compound 2.53 µM) and with IDH-C35 + Bortezomib (first compound 8 µM) was 1.09 each time.

Take A549: the relative viability worked out at 0.881 with IDH-C35 + Foretinib (first compound 0.08 µM); 0.863 with IDH-C35 + Foretinib (first compound 0.253 µM); 0.968 in the assay with IDH-C35 + Foretinib (first compound 0.8 µM); 1.05 in the assay with IDH-C35 + Foretinib (first compound 2.53 µM); 0.835 in the assay with IDH-C35 + Foretinib (first compound 8 µM); 0.624 with IDH-C35 + Linsitinib (first compound 0.08 µM). Further, the relative viability in the assay with IDH-C35 + Linsitinib (first compound 0.253 µM) is 0.55; with IDH-C35 + Linsitinib (first compound 0.8 µM), 0.504; in the assay with IDH-C35 + Linsitinib (first compound 2.53 µM), 0.502; with IDH-C35 + Linsitinib (first compound 8 µM), 0.585.

In the case of A-427, the relative viability with IDH-C35 + Foretinib (first compound 0.08 µM) worked out at 1.01; with IDH-C35 + Foretinib (first compound 0.253 µM) it was 1; with IDH-C35 + Foretinib (first compound 0.8 µM) it was 0.967; with IDH-C35 + Foretinib (first compound 2.53 µM) it was 0.903; with IDH-C35 + Foretinib (first compound 8 µM) it was 0.944; with IDH-C35 + Linsitinib (first compound 0.08 µM) it was 1.13. In addition, the relative viability with IDH-C35 + Linsitinib (first compound 0.253 µM) came out at 1.17; with IDH-C35 + Linsitinib (first compound 0.8 µM), 1.07; with IDH-C35 + Linsitinib (first compound 2.53 µM), 1.1; with IDH-C35 + Linsitinib (first compound 8 µM), 1.18; in assay [1] (first compound 0.0025 µM), 0.189; in assay [1] (first compound 0.007906 µM), 0.188. Moreover, the relative viability in assay [1] (first compound 0.025 µM) came out at 0.215; in assay [1] (first compound 0.07906 µM), 0.227; in assay [1] (first compound 0.25 µM), 0.237; with IDH-C35 + Bortezomib (first compound 0.08 µM), 0.977; with IDH-C35 + Bortezomib (first compound 0.253 µM), 1.04; with IDH-C35 + Bortezomib (first compound 0.8 µM), 1.01. Also, the relative viability in the assay with IDH-C35 + Bortezomib (first compound 2.53 µM) came out at 0.934; with IDH-C35 + Bortezomib (first compound 8 µM) it was 0.952.

Consider ABC-1, for which the relative viability in the assay with IDH-C35 + Foretinib (first compound 0.08 µM) amounted to 1.16; with IDH-C35 + Foretinib (first compound 0.253 µM) it was 0.967; with IDH-C35 + Foretinib (first compound 0.8 µM) it was 0.918; in the assay with IDH-C35 + Foretinib (first compound 2.53 µM), 1.08; in the assay with IDH-C35 + Foretinib (first compound 8 µM), 1.21; in the assay with IDH-C35 + Linsitinib (first compound 0.08 µM), 0.898. For the same cell line, the relative viability with IDH-C35 + Linsitinib (first compound 0.253 µM) came out at 0.856; in the assay with IDH-C35 + Linsitinib (first compound 0.8 µM), 0.913; in the assay with IDH-C35 + Linsitinib (first compound 2.53 µM) it was 0.767; in the assay with IDH-C35 + Linsitinib (first compound 8 µM), 0.746; in assay [1] (first compound 0.0025 µM) it was 0.197; in assay [1] (first compound 0.007906 µM), 0.196. Moreover, the relative viability worked out at 0.216 in assay [1] (first compound 0.025 µM); 0.19 in assay [1] (first compound 0.07906 µM); 0.255 in assay [1] (first compound 0.25 µM); 0.391 in the assay with IDH-C35 + Bortezomib (first compound 0.08 µM); 0.306 with IDH-C35 + Bortezomib (first compound 0.253 µM); 0.299 in the assay with IDH-C35 + Bortezomib (first compound 0.8 µM). Besides, the relative viability was 0.339 in the assay with IDH-C35 + Bortezomib (first compound 2.53 µM) and 0.362 in the assay with IDH-C35 + Bortezomib (first compound 8 µM).

As to BEN, the relative viability stood at 0.631 with IDH-C35 + Foretinib (first compound 0.08 µM); 0.685 in the assay with IDH-C35 + Foretinib (first compound 0.253 µM); 0.616 with IDH-C35 + Foretinib (first compound 0.8 µM); 0.629 with IDH-C35 + Foretinib (first compound 2.53 µM); 0.593 with IDH-C35 + Foretinib (first compound 8 µM); 0.831 with IDH-C35 + Linsitinib (first compound 0.08 µM). In addition, the relative viability with IDH-C35 + Linsitinib (first compound 0.253 µM) turned out to be 0.899; in the assay with IDH-C35 + Linsitinib (first compound 0.8 µM), 0.813; in the assay with IDH-C35 + Linsitinib (first compound 2.53 µM), 0.906; with IDH-C35 + Linsitinib (first compound 8 µM) it was 0.99; in assay [1] (first compound 0.0025 µM), 0.495; in assay [1] (first compound 0.007906 µM), 0.563. In addition, the relative viability in assay [1] (first compound 0.025 µM) stood at 0.586; in assay [1] (first compound 0.07906 µM), 0.457; in assay [1] (first compound 0.25 µM), 0.52; in the assay with IDH-C35 + Bortezomib (first compound 0.08 µM), 0.897; in the assay with IDH-C35 + Bortezomib (first compound 0.253 µM), 0.921; with IDH-C35 + Bortezomib (first compound 0.8 µM), 0.799. Besides, the relative viability amounted to 0.881 in the assay with IDH-C35 + Bortezomib (first compound 2.53 µM) and 0.936 with IDH-C35 + Bortezomib (first compound 8 µM).

Regarding CAL-12T, the relative viability is 1.13 with IDH-C35 + Foretinib (first compound 0.08 µM); 1.22 in the assay with IDH-C35 + Foretinib (first compound 0.253 µM); 1.1 with IDH-C35 + Foretinib (first compound 0.8 µM); 1.01 in the assay with IDH-C35 + Foretinib (first compound 2.53 µM); 1.13 with IDH-C35 + Foretinib (first compound 8 µM); 0.841 with IDH-C35 + Linsitinib (first compound 0.08 µM). Also, the relative viability in the assay with IDH-C35 + Linsitinib (first compound 0.253 µM) came out at 0.826; with IDH-C35 + Linsitinib (first compound 0.8 µM) it was 0.779; with IDH-C35 + Linsitinib (first compound 2.53 µM) it was 0.733; with IDH-C35 + Linsitinib (first compound 8 µM) it was 0.826; in assay [1] (first compound 0.0025 µM) it was 0.334; in assay [1] (first compound 0.007906 µM), 0.315. Besides, the relative viability in assay [1] (first compound 0.025 µM) came to 0.366; in assay [1] (first compound 0.07906 µM), 0.332; in assay [1] (first compound 0.25 µM), 0.304; in the assay with IDH-C35 + Bortezomib (first compound 0.08 µM), 0.975; in the assay with IDH-C35 + Bortezomib (first compound 0.253 µM), 0.863; with IDH-C35 + Bortezomib (first compound 0.8 µM) it was 1.03. The relative viability in the assay with IDH-C35 + Bortezomib (first compound 2.53 µM) came to 1.05; with IDH-C35 + Bortezomib (first compound 8 µM) it was 0.85.

For the cell line COR-L23, the relative viability with IDH-C35 + Foretinib (first compound 0.08 µM) was 0.969; in the assay with IDH-C35 + Foretinib (first compound 0.253 µM), 0.95; with IDH-C35 + Foretinib (first compound 0.8 µM), 0.891; with IDH-C35 + Foretinib (first compound 2.53 µM), 1.01; with IDH-C35 + Foretinib (first compound 8 µM) it was 1.03; with IDH-C35 + Linsitinib (first compound 0.08 µM) it was 0.828. In addition, the relative viability in the assay with IDH-C35 + Linsitinib (first compound 0.253 µM) is 0.896; in the assay with IDH-C35 + Linsitinib (first compound 0.8 µM) it was 0.913; with IDH-C35 + Linsitinib (first compound 2.53 µM), 0.889; with IDH-C35 + Linsitinib (first compound 8 µM), 0.886; in assay [1] (first compound 0.0025 µM), 0.155; in assay [1] (first compound 0.007906 µM), 0.163. Moreover, the relative viability in assay [1] (first compound 0.025 µM) was 0.172; in assay [1] (first compound 0.07906 µM), 0.18; in assay [1] (first compound 0.25 µM), 0.163; in the assay with IDH-C35 + Bortezomib (first compound 0.08 µM), 0.927; in the assay with IDH-C35 + Bortezomib (first compound 0.253 µM), 0.995; with IDH-C35 + Bortezomib (first compound 0.8 µM) it was 1.01. In addition, the relative viability with IDH-C35 + Bortezomib (first compound 2.53 µM) is 0.983; in the assay with IDH-C35 + Bortezomib (first compound 8 µM), 0.909.

Consider COR-L 105, for which the relative viability with IDH-C35 + Foretinib (first compound 0.08 µM) is 0.948; with IDH-C35 + Foretinib (first compound 0.253 µM), 1.16; in the assay with IDH-C35 + Foretinib (first compound 0.8 µM), 0.898; with IDH-C35 + Foretinib (first compound 2.53 µM), 1.07; with IDH-C35 + Foretinib (first compound 8 µM) it was 0.898; with IDH-C35 + Linsitinib (first compound 0.08 µM), 1.01. The relative viability with IDH-C35 + Linsitinib (first compound 0.253 µM) is 1.24; with IDH-C35 + Linsitinib (first compound 0.8 µM) it was 0.854; with IDH-C35 + Linsitinib (first compound 2.53 µM), 1.01; with IDH-C35 + Linsitinib (first compound 8 µM), 0.836; in assay [1] (first compound 0.0025 µM), 0.343; in assay [1] (first compound 0.007906 µM), 0.355. Besides, the relative viability was 0.369 in assay [1] (first compound 0.025 µM); 0.27 in assay [1] (first compound 0.07906 µM); 0.328 in assay [1] (first compound 0.25 µM); 0.902 with IDH-C35 + Bortezomib (first compound 0.08 µM); 0.943 with IDH-C35 + Bortezomib (first compound 0.253 µM); 0.752 with IDH-C35 + Bortezomib (first compound 0.8 µM). Further, the relative viability is 0.66 with IDH-C35 + Bortezomib (first compound 2.53 µM) and 0.489 in the assay with IDH-C35 + Bortezomib (first compound 8 µM).

The record behind these values is the supplement of paper PMC10307832.
